The values below come from patent US20210047304A1, “Bromodomain Inhibitors” (AbbVie Inc., priority 2016, published 2021).

The term Ki denotes a dissociation constant, usually derived from enzyme kinetics or from competition with a known ligand.

Read-outs that look alike come from different tables or passages of the source.

This assay addresses BRD4 (BDI_K57-E168) (Homo sapiens, UniProt O60885). The assay can be described thus: TR-FRET bromodomain binding assay, BRD4 BDI.

As to `Cc1cc(F)cc(C)c1Oc1ccc(C(C)(C)O)cc1-c1cn(C)c(=O)cc1O[C@H]1CC[C@@H](NNC(=O)OC(C)(C)C)CC1` [Example 107, tert-butyl 2-[cis-4-({5-[2-(4-fluoro-2,6-dimethylphenoxy)-5-(2-hydroxypropan-2-yl)phenyl]-1-methyl-2-oxo-1,2-dihydropyridin-4-yl}oxy)cyclohexyl]hydrazine-1-carboxylate], the inhibition constant (Ki) amounted to 1.79 µM. As to `Cc1cc(F)cc(C)c1Oc1ccc(C(C)(C)O)cc1-c1cn(C)c(=O)cc1O[C@H]1CC[C@H](N2CCCCC2=O)CC1` [Example 29, 5-[2-(4-fluoro-2,6-dimethylphenoxy)-5-(2-hydroxypropan-2-yl)phenyl]-1-methyl-4-{[trans-4-(2-oxopiperidin-1-yl)cyclohexyl]oxy}pyridin-2(1H)-one], affinity was put at a Ki of 2.22 µM. For `Cc1cc(F)cc(C)c1Oc1ccc(C(C)(C)O)cc1-c1cn(C)c(=O)cc1O[C@H]1CC[C@H](N2CCCS2(=O)=O)CC1` [Example 52, 2-[trans-4-({5-[2-(4-fluoro-2,6-dimethylphenoxy)-5-(2-hydroxypropan-2-yl)phenyl]-1-methyl-2-oxo-1,2-dihydropyridin-4-yl}oxy)cyclohexyl]-1lambda^6,2-thiazolidine-1,1-dione], the Ki stood at 3.48 µM. For `COCC(=O)N1CCC(Oc2cc(=O)n(C)cc2-c2cc(C(C)(C)O)cnc2Oc2c(C)cc(F)cc2C)CC1` [Example 26, 2′-(4-fluoro-2,6-dimethylphenoxy)-5′-(2-hydroxypropan-2-yl)-4-{[1-(methoxyacetyl)piperidin-4-yl]oxy}-1-methyl[3,3′-bipyridin]-6(1H)-one], the Ki is 8.85 µM. Molecule `Cc1cc(F)cc(C)c1Oc1ccc(C(C)(C)O)cc1-c1cn(C)c(=O)cc1NC1CCN(S(C)(=O)=O)CC1` [Example 9, 5-[2-(4-fluoro-2,6-dimethylphenoxy)-5-(2-hydroxypropan-2-yl)phenyl]-4-{[1-(methanesulfonyl)piperidin-4-yl]amino}-1-methylpyridin-2(1H)-one] had a Ki of 3.68 µM.

Take `Cc1cc(F)cc(C)c1Oc1ccc(C(C)(C)O)cc1-c1cn(C)c(=O)cc1O[C@H]1CC[C@@H](C(C)(C)O)CC1` [Example 74, 5-[2-(4-fluoro-2,6-dimethylphenoxy)-5-(2-hydroxypropan-2-yl)phenyl]-4-{[cis-4-(2-hydroxypropan-2-yl)cyclohexyl]oxy}-1-methylpyridin-2(1H)-one]: the Ki was more than 13 µM. `Cc1cc(F)cc(C)c1Oc1ccc(C(C)(C)O)cc1-c1cn(C)c(=O)cc1O[C@H]1CC[C@H](N2C(=O)C3CC3C2=O)CC1` (relative stereo) [Example 129, 3-[trans-4-({5-[2-(4-fluoro-2,6-dimethylphenoxy)-5-(2-hydroxypropan-2-yl)phenyl]-1-methyl-2-oxo-1,2-dihydropyridin-4-yl}oxy)cyclohexyl]-3-azabicyclo[3.1.0]hexane-2,4-dione] yielded a Ki of 0.772 µM. On the same count and under the same terms, as for `Cc1cc(F)cc(C)c1Oc1ccc(C(C)(C)O)cc1-c1cn(C)c(=O)cc1O[C@H]1CC[C@H](NNC(=O)OC(C)(C)C)CC1` [Example 106, tert-butyl 2-[trans-4-({5-[2-(4-fluoro-2,6-dimethylphenoxy)-5-(2-hydroxypropan-2-yl)phenyl]-1-methyl-2-oxo-1,2-dihydropyridin-4-yl}oxy)cyclohexyl]hydrazine-1-carboxylate], the figure is 3.41 µM; as for `Cc1cc(F)cc(C)c1Oc1ccc(C(C)(C)O)cc1-c1cn(C)c(=O)cc1O[C@H]1CC[C@H](NS(C)(=O)=O)CC1` [Example 46, N-[trans-4-({5-[2-(4-fluoro-2,6-dimethylphenoxy)-5-(2-hydroxypropan-2-yl)phenyl]-1-methyl-2-oxo-1,2-dihydropyridin-4-yl}oxy)cyclohexyl]methanesulfonamide], 5.45 µM; as for `Cc1cccc(C)c1Oc1ccc(C(C)(C)O)cc1-c1cn(C)c(=O)cc1NC1CCN(C(=O)OC(C)(C)C)C1` (stereo not drawn) [Example 11, tert-butyl 3-({5-[2-(2,6-dimethylphenoxy)-5-(2-hydroxypropan-2-yl)phenyl]-1-methyl-2-oxo-1,2-dihydropyridin-4-yl}amino)pyrrolidine-1-carboxylate], 1.27 µM. As to `Cc1cc(F)cc(C)c1Oc1ccc(C(C)(C)O)cc1-c1cn(C)c(=O)cc1O[C@H]1CC[C@H](C(N)=O)CC1` [Example 102, trans-4-({5-[2-(4-fluoro-2,6-dimethylphenoxy)-5-(2-hydroxypropan-2-yl)phenyl]-1-methyl-2-oxo-1,2-dihydropyridin-4-yl}oxy)cyclohexane-1-carboxamide], the Ki was determined as 4 µM. On the same count and under the same terms, as for `CC(=O)N[C@H]1CC[C@H](Oc2cc(=O)n(C)cc2-c2cc(C(C)(C)O)cnc2Oc2c(C)cc(C(C)(C)O)cc2C)CC1` [Example 17, N-[trans-4-({5′-(2-hydroxypropan-2-yl)-2′-[4-(2-hydroxypropan-2-yl)-2,6-dimethylphenoxy]-1-methyl-6-oxo[1,6-dihydro[3,3′-bipyridine]]-4-yl}oxy)cyclohexyl]acetamide], the figure is 1.17 µM; as for `CC(=O)NC[C@H]1C[C@H](Oc2cc(=O)n(C)cc2-c2cc(C(C)(C)O)ccc2Oc2c(C)cc(F)cc2C)C1` [Example 6, N-{[trans-3-({5-[2-(4-fluoro-2,6-dimethylphenoxy)-5-(2-hydroxypropan-2-yl)phenyl]-1-methyl-2-oxo-1,2-dihydropyridin-4-yl}oxy)cyclobutyl]methyl}acetamide], 0.72 µM; as for `CC(=O)NC1(C)CCC(Oc2cc(=O)n(C)cc2-c2cc(C(C)(C)O)ccc2Oc2c(C)cc(F)cc2C)CC1` (stereo not drawn) [Example 32, N-[trans-4-({5-[2-(4-fluoro-2,6-dimethylphenoxy)-5-(2-hydroxypropan-2-yl)phenyl]-1-methyl-2-oxo-1,2-dihydropyridin-4-yl}oxy)-1-methylcyclohexyl]acetamide], 1.01 µM.

On to `Cc1cc(F)cc(C)c1Oc1ccc(C(C)(C)O)cc1-c1cn(C)c(=O)cc1O[C@H]1C[C@@H](C(=O)N2CCCC2)C1` [Example 96, 5-[2-(4-fluoro-2,6-dimethylphenoxy)-5-(2-hydroxypropan-2-yl)phenyl]-1-methyl-4-{[cis-3-(pyrrolidine-1-carbonyl)cyclobutyl]oxy}pyridin-2(1H)-one], for which affinity was put at a Ki of 2.2 µM. Still for that read-out and setting: under `Cc1cc(F)cc(C)c1Oc1ccc(C(C)(C)O)cc1-c1cn(C)c(=O)cc1O[C@H]1CC[C@H](NC(=O)C2(CNC(=O)OC(C)(C)C)CC2)CC1` [Example 104, tert-butyl [(1-{[trans-4-({5-[2-(4-fluoro-2,6-dimethylphenoxy)-5-(2-hydroxypropan-2-yl)phenyl]-1-methyl-2-oxo-1,2-dihydropyridin-4-yl}oxy)cyclohexyl]carbamoyl}cyclopropyl)methyl]carbamate] stands more than 13 µM. Regarding `CC=C1NC(=O)N([C@H]2CC[C@H](Oc3cc(=O)n(C)cc3-c3cc(C(C)(C)O)ccc3Oc3c(C)cc(F)cc3C)CC2)C1=O` [Example 133, 5-ethylidene-3-[trans-4-({5-[2-(4-fluoro-2,6-dimethylphenoxy)-5-(2-hydroxypropan-2-yl)phenyl]-1-methyl-2-oxo-1,2-dihydropyridin-4-yl}oxy)cyclohexyl]imidazolidine-2,4-dione], the Ki was more than 13 µM. Same read-out and setting: as for `Cc1cc(F)cc(C)c1Oc1ccc(C(C)(C)O)cc1-c1cn(C)c(=O)cc1O[C@H]1CC[C@H](CNC(=O)OC(C)(C)C)CC1` [Example 15, tert-butyl [trans-4-({5-[2-(4-fluoro-2,6-dimethylphenoxy)-5-(2-hydroxypropan-2-yl)phenyl]-1-methyl-2-oxo-1,2-dihydropyridin-4-yl}oxy)cyclohexyl]methylcarbamate], the figure is 6.02 µM; as for `CCNC(=O)[C@H]1C[C@@H](Oc2cc(=O)n(C)cc2-c2cc(C(C)(C)O)ccc2Oc2c(C)cc(F)cc2C)C1` [Example 95, cis-N-ethyl-3-({5-[2-(4-fluoro-2,6-dimethylphenoxy)-5-(2-hydroxypropan-2-yl)phenyl]-1-methyl-2-oxo-1,2-dihydropyridin-4-yl}oxy)cyclobutane-1-carboxamide], 1.58 µM. As for “methyl [trans-4-({5-[2-(4-fluoro-2,6-dimethylphenoxy)-5-(2-hydroxypropan-2-yl)phenyl]-1-methyl-2-oxo-1,2-dihydropyridin-4-yl}oxy)cyclohexyl]methylcarbamate [Example 21]”, the Ki (mean Ki, 12 nM His tagged BRD4 (BDI_K57-E168), 100 nM Alexa647 probe, Ki calculated from IC50, probe Kd and probe concentration) is 3.02 µM. Turning to `Cc1cc(F)cc(C)c1Oc1ccc(C(C)(C)O)cc1-c1cn(C)c(=O)cc1O[C@H]1CC[C@H](NC(=O)C23CC(C2)C3)CC1` (relative stereo) [Example 86, N-[trans-4-({5-[2-(4-fluoro-2,6-dimethylphenoxy)-5-(2-hydroxypropan-2-yl)phenyl]-1-methyl-2-oxo-1,2-dihydropyridin-4-yl}oxy)cyclohexyl]bicyclo[1.1.1]pentane-1-carboxamide], the affinity, expressed as Ki, was 1.74 µM. Same read-out and setting: as for `CC(=O)NC1CC2(C1)CC(Nc1cc(=O)n(C)cc1-c1cc(C(C)(C)O)ccc1Oc1c(C)cccc1C)C2` (stereo not drawn) [Example 10, N-[6-({5-[2-(2,6-dimethylphenoxy)-5-(2-hydroxypropan-2-yl)phenyl]-1-methyl-2-oxo-1,2-dihydropyridin-4-yl}amino)spiro[3.3]heptan-2-yl]acetamide], the figure is 2.33 µM; as for `CC(=O)N([C@H](C)c1ccc(Oc2c(C)cccc2C)c(-c2cn(C)c(=O)cc2O[C@H]2CC[C@H](NC(=O)C3(C)CC3)CC2)c1)[C@@H](C)c1ccccc1` [Example 116, N-{trans-4-[(5-{5-[(1R)-1-{acetyl[(1S)-1-phenylethyl]amino}ethyl]-2-(2,6-dimethylphenoxy)phenyl}-1-methyl-2-oxo-1,2-dihydropyridin-4-yl)oxy]cyclohexyl}-1-methylcyclopropane-1-carboxamide], more than 13 µM; as for `Cc1cc(F)cc(C)c1Oc1ccc(C(C)(C)O)cc1-c1cn(C)c(=O)cc1O[C@H]1CC[C@H](NC(=O)C2(C)CC(=O)C2)CC1` [Example 87, N-[trans-4-({5-[2-(4-fluoro-2,6-dimethylphenoxy)-5-(2-hydroxypropan-2-yl)phenyl]-1-methyl-2-oxo-1,2-dihydropyridin-4-yl}oxy)cyclohexyl]-1-methyl-3-oxocyclobutane-1-carboxamide], 2.43 µM.
